Results as given in ChEMBL document CHEMBL1151122, “Diterpenoids from the roots of Salvia hypargeia” (1988).
In brackets after ≈: the same amount, converted by molar mass. Activity calls are given as the source filed them. The calls are words filed in the database; no cut-off is given here.

Experiments:
[1] = system: Bacillus subtilis; assay: Antibacterial activity against Bacillus subtilis ATCC 6633 by tube dilution method; assay type: functional
[2] = system: Staphylococcus aureus; assay: Antibacterial activity against Staphylococcus aureus ATCC 6538 by disk diffusion method; assay type: functional
[3] = system: Bacillus subtilis; assay: Antibacterial activity against Bacillus subtilis ATCC 6633 by disk diffusion method; assay type: functional
[4] = system: Pseudomonas aeruginosa; assay: Antibacterial activity against Pseudomonas aeruginosa ATCC 1539 by disk diffusion method; assay type: functional
[5] = system: Staphylococcus epidermidis; assay: Antibacterial activity against Staphylococcus epidermidis ATCC 12228 by disk diffusion method; assay type: functional
[6] = system: Klebsiella pneumoniae; assay: Antibacterial activity against Klebsiella pneumoniae UC 57 by disk diffusion method; assay type: functional
[7] = system: Klebsiella pneumoniae; assay: Antibacterial activity against Klebsiella pneumoniae UC 57 by tube dilution method; assay type: functional
[8] = system: Staphylococcus aureus; assay: Antibacterial activity against Staphylococcus aureus ATCC 6538 by tube dilution method; assay type: functional
[9] = system: Pseudomonas aeruginosa; assay: Antibacterial activity against Pseudomonas aeruginosa ATCC 1539 by tube dilution method; assay type: functional
[10] = system: Mycobacterium tuberculosis; assay: Antitubercular activity against Mycobacterium tuberculosis H37Rv at 250 ug/ml; assay type: functional, organism-based
[11] = system: Staphylococcus epidermidis; assay: Antibacterial activity against Staphylococcus epidermidis ATCC 12228 by tube dilution method; assay type: functional
[12] = system: Staphylococcus epidermidis; assay: Antibacterial activity against Staphylococcus epidermidis ATCC 12228; assay type: functional, organism-based
[13] = system: Pseudomonas aeruginosa; assay: Antibacterial activity against Pseudomonas aeruginosa ATCC 1539; assay type: functional, organism-based
[14] = system: Bacillus subtilis; assay: Antibacterial activity against Bacillus subtilis ATCC 6633; assay type: functional, organism-based
[15] = system: Klebsiella pneumoniae; assay: Antibacterial activity against Klebsiella pneumoniae UC 57; assay type: functional, organism-based
[16] = system: Staphylococcus aureus; assay: Antibacterial activity against Staphylococcus aureus ATCC 6538; assay type: functional, organism-based

Row | SMILES | MIC [1] [µg/mL] | inhibition zone (IZ) [2] [mm] | inhibition zone (IZ) [3] [mm] | inhibition zone (IZ) [4] [mm] | inhibition zone (IZ) [5] [mm] | inhibition zone (IZ) [6] [mm] | MIC [7] [µg/mL] | MIC [8] [µg/mL] | MIC [9] [µg/mL] | Activity [10] | MIC [11] [µg/mL] | Activity [12] | Activity [13] | Activity [14] | Activity [15] | Activity [16]
1 | CC(C)c1cc2c(cc1O)[C@@]1(C)CCC(=O)C(C)(C)[C@@H]1C=C2 [HYPARGENIN D] | 62.5 (≈ 209 µM) | >7 | >7 | >7 | >7 | >7 | – | – | – | – | – | – | – | – | – | –
2 | CC(C)(O)c1cc2c(cc1O)[C@@]1(C)CCCC(C)(C)[C@@H]1CC2=O [HYPARGENIN B] | – | >7 | >7 | >7 | >7 | >7 | 125 (≈ 395 µM) | 125 (≈ 395 µM) | – | – | – | – | – | – | – | –
3 | CC(C)c1cc2c(cc1O)[C@@]1(C)CCCC(C)(C)[C@@H]1C(=O)C2=O [HYPARGENIN C] | 15.6 (≈ 49.6 µM) | >7 | >7 | >7 | >7 | >7 | – | 125 (≈ 398 µM) | – | – | – | – | – | – | – | –
4 | CC(C)C1=C(O)C(=O)C2=C(C=CC3(O)C(C)(C)CCC[C@]23C)C1=O (stereo partly specified) [HYPARGENIN F] | – | >7 | >7 | >7 | >7 | >7 | – | 125 (≈ 378 µM) | 125 (≈ 378 µM) | Active | 62.5 (≈ 189 µM) | – | – | – | – | –
5 | CC(C)c1ccc2c(c1O)C[C@@H](O)[C@H]1C(C)(C)CCC(=O)[C@]21C | – | – | – | – | – | – | – | – | – | – | – | inactive | inactive | inactive | inactive | inactive
6 | CC(C)c1cc2c(cc1O)[C@@]1(C)C(=O)CCC(C)(C)[C@@H]1[C@H](O)C2=O [HYPARGENIN A] | – | >7 | >7 | >7 | >7 | >7 | 15.6 (≈ 47.2 µM) | 15.6 (≈ 47.2 µM) | – | – | – | – | – | – | – | –
